Activity calls are given as the source filed them. The rule behind the calls is not given here.

A word on the EC50: it is the concentration at which the effect is half-maximal. By IC50 is commonly meant the concentration at which inhibition is half-maximal.

The target in assay [1] is Beta-2 adrenergic receptor (Cavia porcellus, UniProt Q8K4Z4). In words: Agonist activity at beta2-adrenoceptor in guinea pig trachea assessed as relaxation of histamine-induced precontracted tracheal rings.
For assay [2], the target named is 3',5'-cyclic-AMP phosphodiesterase 4B (Homo sapiens, UniProt Q07343). Briefly: Inhibition of human recombinant PDE4B2 assessed as decrease in cAMP hydrolysis preincubated with substrate prior to enzyme addition measured after 30 mins by colorimetric assay method.
Sequence of 3',5'-cyclic-AMP phosphodiesterase 4B (Q07343 whole entry): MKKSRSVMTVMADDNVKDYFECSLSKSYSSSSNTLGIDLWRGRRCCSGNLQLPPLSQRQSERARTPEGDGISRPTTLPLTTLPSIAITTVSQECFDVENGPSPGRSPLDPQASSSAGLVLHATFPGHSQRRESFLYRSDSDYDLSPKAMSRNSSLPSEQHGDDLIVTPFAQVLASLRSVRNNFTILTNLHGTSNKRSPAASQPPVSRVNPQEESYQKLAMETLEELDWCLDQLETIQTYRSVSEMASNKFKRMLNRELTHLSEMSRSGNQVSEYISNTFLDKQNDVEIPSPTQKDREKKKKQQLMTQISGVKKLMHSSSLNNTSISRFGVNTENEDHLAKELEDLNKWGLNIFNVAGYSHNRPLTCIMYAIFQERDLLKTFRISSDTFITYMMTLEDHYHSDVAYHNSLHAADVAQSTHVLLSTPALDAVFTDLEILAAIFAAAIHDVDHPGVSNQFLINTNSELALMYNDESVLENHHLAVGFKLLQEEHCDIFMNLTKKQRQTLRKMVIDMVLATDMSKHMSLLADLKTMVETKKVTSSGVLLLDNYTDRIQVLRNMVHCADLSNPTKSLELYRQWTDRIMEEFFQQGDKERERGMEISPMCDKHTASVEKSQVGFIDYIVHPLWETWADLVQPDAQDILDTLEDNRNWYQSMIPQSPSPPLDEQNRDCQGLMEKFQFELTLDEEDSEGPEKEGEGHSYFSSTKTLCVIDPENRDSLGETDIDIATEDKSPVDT
Assay [3] concerns the target Beta-2 adrenergic receptor (Cavia porcellus) (UniProt Q8K4Z4). Briefly: Agonist activity at beta2-adrenoceptor in guinea pig trachea assessed as relaxation of histamine-induced precontracted tracheal rings treated 10 mins after histamine and beta2-adrenoceptor antagonist, ICI 118,551 addition.

Sequence of Beta-2 adrenergic receptor (Q8K4Z4 whole entry): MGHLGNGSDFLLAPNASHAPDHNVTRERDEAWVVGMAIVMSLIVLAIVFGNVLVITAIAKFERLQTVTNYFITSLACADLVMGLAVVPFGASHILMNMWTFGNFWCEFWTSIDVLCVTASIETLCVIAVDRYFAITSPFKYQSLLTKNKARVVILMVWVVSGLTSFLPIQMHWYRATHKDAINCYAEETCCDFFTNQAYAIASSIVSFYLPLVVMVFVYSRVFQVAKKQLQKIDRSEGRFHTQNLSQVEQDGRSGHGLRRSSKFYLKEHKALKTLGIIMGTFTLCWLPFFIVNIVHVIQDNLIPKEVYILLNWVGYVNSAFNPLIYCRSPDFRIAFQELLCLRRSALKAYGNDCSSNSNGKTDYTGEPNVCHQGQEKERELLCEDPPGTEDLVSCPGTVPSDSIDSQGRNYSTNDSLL
Sequence of Beta-2 adrenergic receptor (Cavia porcellus) (Q8K4Z4 whole entry, looked up): as the sequence (Q8K4Z4 whole entry) above

Turning to `COc1ccc(C2=NN(CCCCNCC(O)c3ccc(O)c(CO)c3)C(=O)C3CCCCC23)cc1OC` (centres undefined), in assay [1], the concentration for a half-maximal effect (EC50) was 0.676 nM. Moreover, in assay [2], the IC50 was determined as 278 nM.

With `COc1ccc(C(=O)Nc2c(Cl)cncc2Cl)cc1OCCCNCC(O)c1ccc(O)c(CO)c1` (centres undefined), in assay [1], the EC50 was 3.39 nM. Further, in assay [2], the half-maximal inhibitory concentration (IC50) was determined as 1090 nM.

As to `COc1ccc(C(=O)Nc2c(Cl)cncc2Cl)cc1OCCCCNCC(O)c1ccc(O)c(CO)c1` (centres undefined), the EC50 in assay [1] is 2.82 nM. Further, the IC50 in assay [2] is 601 nM.

In the case of `COc1ccc(C2=NN(CCCCCNCC(O)c3ccc(O)c(CO)c3)C(=O)C3CCCCC23)cc1OC` (centres undefined), in assay [1], the EC50 was 0.832 nM. The half-maximal inhibitory concentration (IC50) in assay [2] was 271 nM.

Regarding `COc1ccc(C2=NN(CCCCCCNCC(O)c3ccc(O)c(CO)c3)C(=O)C3CCCCC23)cc1OC` (centres undefined), the concentration giving a half-maximal response (EC50) in assay [1] is 0.631 nM. Further, the half-maximal inhibitory concentration (IC50) in assay [2] was 263 nM. Also, in assay [3], the outcome was inactive.

Consider `COc1ccc(C(=O)Nc2c(Cl)cncc2Cl)cc1OCCCCCCNCC(O)c1ccc(O)c(CO)c1` (centres undefined), for which the EC50 in assay [1] was 3.16 nM. The IC50 in assay [2] was 235 nM. Further, in assay [3], the result was inactive.

`CC(C)NCC(O)c1ccc(O)c(O)c1` (centres undefined) [ISOPROTERENOL]: the EC50 in assay [1] was 28.8 nM.

In the case of `COc1ccc(C2=NN(CCNCC(O)c3ccc(O)c(CO)c3)C(=O)C3CCCCC23)cc1OC` (centres undefined), in assay [1], the EC50 was 0.646 nM. Moreover, in assay [2], the half-maximal inhibitory concentration (IC50) stood at 282 nM.

Consider `COc1ccc(C(=O)Nc2c(Cl)cncc2Cl)cc1OCCCCCNCC(O)c1ccc(O)c(CO)c1` (centres undefined), for which the EC50 in assay [1] was 1.95 nM. Further, the IC50 in assay [2] is 394 nM.
